Test results: US20160083776A1, “Methods for Measuring Polymerase Activity Useful for Sensitive, Quantitative Measurements of Any Polymerase Extension Activity and for Determining the Presence of Viable Cells” (Zeus Scientific, Inc., priority 2012, published 2016)

Assays:
Format in all cases: biochemical
[1] = system: E. coli-derived DNA polymerase activity; test: Bead lysis-coupled DPE-PCR, ddCTP substitution, E. coli lysate; conditions: 50 μM ddCTP substituted for dCTP, compared to standard reaction mix; crude bead mill lysate
Procedure: (§1) FIG. 5 illustrates that detection of bacteria by DPE-PCR is blocked by ddCTP. 5 μL of E. coli suspension were added to bead lysis-coupled DNA polymerase assays comprised of a dNTP mix containing either 50 μM dCTP or 50 μM ddCTP. DPE-PCR curves representing E. coli-derived DNA polymerase activity is presented. Plots were generated using the average qPCR Ct values from triplicate reactions at the indicated conditions. ddCTP termination and dCTP rescue experiments were performed for S. aureus exactly as described above for E. coli.
(§2) S. aureus and E. coli cultures were grown to an OD600 of 1.0±0.2 (approximately 1×10^9 cfu/mL.) For each organism, 1 mL of culture was pelleted and washed three times in T.E. Bacterial suspensions were serially diluted in T.E., and 5 μL of each stock were added to bead mill lysis tubes containing 50 μL DNA polymerase extension reaction mixture (see above for composition). A titration curve of 1×10^5 to […] cfu/reaction was performed in triplicate for each organism, including triplicate reactions without bacterial suspension.
(§3) After the addition of 5 μL bacterial stock, reaction tubes were bead milled for 6 min. at 2800 rpm using a digital Vortex Genie equipped with a disrupter head (Scientific Industries). Immediately after disruption, sample tubes were placed at 37° C. for 20 minutes. […]

DNA polymerase I = biological target: T1, DNA polymerase I (Escherichia coli, UniProt P00582); test: DPE-PCR assay, ddCTP termination of purified DNA polymerase extension activity; conditions: 50 μM ddCTP substituted for dCTP in the extension reaction mix; 37° C., 20 minutes
T1 construct: purchased New England Biolabs MO209
T1 sequence (P00582 whole entry): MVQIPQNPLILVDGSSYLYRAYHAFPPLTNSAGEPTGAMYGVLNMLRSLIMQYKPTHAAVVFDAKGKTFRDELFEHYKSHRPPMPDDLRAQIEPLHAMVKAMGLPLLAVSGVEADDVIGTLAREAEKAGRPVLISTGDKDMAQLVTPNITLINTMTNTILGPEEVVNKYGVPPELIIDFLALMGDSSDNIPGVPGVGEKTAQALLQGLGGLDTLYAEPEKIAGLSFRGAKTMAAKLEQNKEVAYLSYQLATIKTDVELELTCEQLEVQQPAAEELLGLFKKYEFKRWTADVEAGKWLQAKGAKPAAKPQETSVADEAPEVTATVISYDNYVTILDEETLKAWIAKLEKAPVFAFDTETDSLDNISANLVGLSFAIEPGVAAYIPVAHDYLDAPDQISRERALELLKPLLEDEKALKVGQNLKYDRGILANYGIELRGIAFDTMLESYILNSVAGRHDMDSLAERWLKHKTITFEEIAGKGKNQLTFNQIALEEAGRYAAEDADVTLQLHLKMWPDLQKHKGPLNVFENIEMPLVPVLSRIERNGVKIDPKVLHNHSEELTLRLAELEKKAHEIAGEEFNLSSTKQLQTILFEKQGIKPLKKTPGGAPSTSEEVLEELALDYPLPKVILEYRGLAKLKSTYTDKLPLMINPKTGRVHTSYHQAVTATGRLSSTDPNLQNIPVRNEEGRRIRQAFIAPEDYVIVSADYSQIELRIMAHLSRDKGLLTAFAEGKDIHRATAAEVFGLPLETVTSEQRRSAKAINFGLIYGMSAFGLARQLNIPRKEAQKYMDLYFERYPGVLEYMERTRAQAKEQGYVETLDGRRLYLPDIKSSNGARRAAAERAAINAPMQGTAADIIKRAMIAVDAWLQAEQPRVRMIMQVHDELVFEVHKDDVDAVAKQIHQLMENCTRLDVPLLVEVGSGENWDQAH
Procedure: DNA Pol I (NEB cat# MO209L), Klenow (NEB cat# MO210S) and Klenow exo(−) (NEB cat# MO212S) were diluted to the indicated U/μL stock in sterile T.E. pH 8.0. To begin, 2 μL of DNA polymerase stock at each concentration were placed into a 50 μL DNA polymerase extension reaction mixture containing the following components: 50 μM dNTP, 20 mM Tris pH 8.0, 10 mM Ammonium sulfate, 10 mM Potassium chloride, 2 mM Magnesium sulfate, 1% BSA, 0.1% Triton X-100, 0.1% Tween 20, and 0.001 μM pre-annealed DNA substrate (described above. Two micro-liters of T.E. (without DNA polymerase) was routinely added to an additional tube containing complete DNA polymerase extension reaction mixture and is referred to as a “No Input Control” (NIC). Reactions containing DNA polymerase (or No Input Controls) were vortexed briefly and placed at 37° C. for 20 minutes. After 20 minutes, 3 μL of each reactions containing purified DNA polymerase were immediately placed into a qPCR reaction (see below for qPCR conditions).
DNA polymerase extension reactions were prepared as described above with a 50 μM [dATP, dGTP, dTTP] mixture supplemented with either 50 μM dCTP or 50 μM ddCTP (Affymetrix #77332.) 50 μL DNA polymerase extension reactions with a 50 μM [dATP, dGTP, dTTP] mixture, supplemented with either dCTP or ddCTP, were spiked with 2 μL of a 1×10^−9 U/μL stock of DNA polymerase I (New England Biolabs # MO209). […]

[2] = system: S. aureus DNA polymerase extension activity; test: Bead lysis-coupled DPE-PCR, ddCTP substitution, S. aureus lysate; conditions: 50 μM ddCTP substituted for dCTP, compared to standard reaction mix; crude bead mill lysate
Procedure: as §1, §2, §3

## Nc1ccn([C@H]2CC[C@@H](COP(=O)(O)OP(=O)(O)OP(=O)(O)O)O2)c(=O)n1 [ddCTP, 2′,3′-Dideoxycytidine-5′-Triphosphate]
[1]
  DPE-PCR signal derived from E. coli cfu spikes: blocked the generation of signal
DNA polymerase I
  DPE-PCR assay signal generated by DNA polymerase I: eliminates signal
[2]
  DPE-PCR signal derived from S. aureus cfu spikes: blocked the generation of signal
